# Test results taken from US6737383B1, “Herbicidal oxadiazolidines” (priority 1999, dated 2004).
# Tests used:
# [1] = system: giant foxtail; experiment: Test B pre/postemergence giant foxtail; type: in vivo, Setaria faberii
# In short: (§1)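 Herbicidal effect was estimated by eye on a ten-point control scale after plants spent twelve to sixteen days in a greenhouse following soil or foliar treatment. Foliar sprays targeted plants at one to four leaves; all doses were formulated in a non-phytotoxic solvent with surfactant.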
# [2] = system: sugar beet; experiment: Test B pre/postemergence sugar beet; type: in vivo, Beta vulgaris
# In short: as §1
# [3] = system: morningglory; experiment: Test B pre/postemergence morningglory; type: in vivo, Ipomoea hederacea
# In short: as §1
# [4] = system: bamyardgrass; experiment: Test B flood test barnyardgrass; type: in vivo, Echinochloa crus-galli
# In short: (§2)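 Flood test on plants grown to the 2-leaf stage; treated plants kept in greenhouse twelve to sixteen days, then visually rated against controls on a 0 (no effect) to 10 (complete control) scale.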
# [5] = system: smallflower flatsedge; experiment: Test B flood test smallflower flatsedge; type: in vivo, Cyperus difformis
# In short: as §2
# [6] = system: rape; experiment: Test B pre/postemergence rape; type: in vivo, Brassica napus
# In short: as §1
# [7] = system: wild oat; experiment: Test B pre/postemergence wild oat; type: in vivo, Avena fatua
# In short: as §1
# [8] = system: surinam grass; experiment: Test B pre/postemergence surinam grass; type: in vivo, Brachiaria decumbens
# In short: as §1
# [9] = system: corn; experiment: Test B pre/postemergence corn; type: in vivo, Zea mays
# In short: as §1
# [10] = system: purple nutsedge; experiment: Test B pre/postemergence purple nutsedge; type: in vivo, Cyperus rotundus
# In short: as §1
# [11] = system: rice; experiment: Test B flood test rice; type: in vivo, Oryza sativa
# In short: as §2
# [12] = system: pigweed; experiment: Test B pre/postemergence pigweed; type: in vivo, Amaranthus retroflexus
# In short: as §1
# [13] = system: soybean; experiment: Test B pre/postemergence soybean; type: in vivo, Glycine max
# In short: as §1
# [14] = system: duck salad; experiment: Test B flood test duck salad; type: in vivo, Heteranthera limosa
# In short: as §2
# [15] = system: cocklebur; experiment: Test B pre/postemergence cocklebur; type: in vivo, Xanthium strumarium
# In short: as §1
# [16] = system: crabgrass; experiment: Test B pre/postemergence crabgrass; type: in vivo, Digitaria sanguinalis
# In short: as §1
# [17] = Postemergence, Rate 62 g/ha, scale 0 to 10, 0 is no effect, 10 is complete control
# [18] = Postemergence, Rate 250 g/ha, scale 0 to 10, 0 no effect, 10 complete control
# [19] = Preemergence, Rate 62 g/ha, scale 0 to 10 (0 no effect, 10 complete control)
# [20] = Preemergence, Rate 125 g/ha, scale 0 to 10 (0 no effect, 10 complete control)
# [21] = Preemergence, Rate 250 g/ha, scale of 0 to 10 where 0 is no effect and 10 is complete control
# [22] = Preemergence, Rate 500 g/ha, scale 0 (no effect) to 10 (complete control)
# [23] = Rate 125 g/ha, Postemergence, scale 0 to 10, 0 no effect, 10 complete control
# [24] = Rate 500 g/ha, Postemergence, scale 0 to 10, 0 no effect, 10 complete control
# [25] = Rate 125 g/ha, Postemergence section (flood test species), scale 0 to 10, 0 no effect, 10 complete control
# [26] = Rate 500 g/ha, listed under Postemergence (flood test species), scale 0 to 10, 0 no effect, 10 complete control
# [27] = flood test, listed under Postemergence, Rate 250 g/ha, scale 0 to 10, 0 no effect, 10 complete control
smiles,measurement,setting,value
CN(C(=O)n1oc(=O)n(Cc2cccs2)c1=O)c1ccccc1 [Compound 83],Giant foxtail plant response rating,[1]; [17],0
same,Giant foxtail plant response rating,[1]; [18],0
same,Giant foxtail plant response rating,[1]; [19],0
same,"Plant response rating, Giant foxtail",[1]; [20],0
same,"Plant response rating, Giant foxtail",[1]; [21],0
same,Giant foxtail plant response rating,[1]; [22],0
same,Giant foxtail plant response rating,[1]; [23],0
same,Giant foxtail plant response rating,[1]; [24],0
same,Sugarbeets plant response rating,[2]; [17],0
same,Sugarbeets plant response rating,[2]; [18],0
same,Sugarbeets plant response rating,[2]; [19],0
same,"Plant response rating, Sugarbeets",[2]; [20],0
same,"Plant response rating, Sugarbeets",[2]; [21],0
same,Sugarbeets plant response rating,[2]; [22],0
same,Sugarbeets plant response rating,[2]; [23],0
same,Sugarbeets plant response rating,[2]; [24],0
same,Morningglory plant response rating,[3]; [17],0
same,Morningglory plant response rating,[3]; [18],0
same,Morningglory plant response rating,[3]; [19],0
same,"Plant response rating, Morningglory",[3]; [20],0
same,"Plant response rating, Morningglory",[3]; [21],0
same,Morningglory plant response rating,[3]; [22],0
same,Morningglory plant response rating,[3]; [23],0
same,Morningglory plant response rating,[3]; [24],0
same,Barnyardgrass plant response rating,[4]; [17],0
same,Barnyardgrass plant response rating,[4]; [25],0
same,Barnyardgrass plant response rating,[4]; [26],0
same,Barnyardgrass plant response rating,[4]; [27],0
same,S. Flatsedge plant response rating,[5]; [17],0
same,S. Flatsedge plant response rating,[5]; [25],0
same,S. Flatsedge plant response rating,[5]; [26],0
same,S. Flatsedge plant response rating,[5]; [27],0
same,Rape plant response rating,[6]; [17],0
same,Rape plant response rating,[6]; [18],0
same,Rape plant response rating,[6]; [19],0
same,"Plant response rating, Rape",[6]; [20],0
same,"Plant response rating, Rape",[6]; [21],0
same,Rape plant response rating,[6]; [22],0
same,Rape plant response rating,[6]; [23],0
same,Rape plant response rating,[6]; [24],0
same,Wild oats plant response rating,[7]; [17],0
same,Wild oats plant response rating,[7]; [18],0
same,Wild oats plant response rating,[7]; [19],0
same,"Plant response rating, Wild oats",[7]; [20],0
same,"Plant response rating, Wild oats",[7]; [21],0
same,Wild oats plant response rating,[7]; [22],0
same,Wild oats plant response rating,[7]; [23],0
same,Wild oats plant response rating,[7]; [24],0
same,B. signalgrass plant response rating,[8]; [17],0
same,B. signalgrass plant response rating,[8]; [18],0
same,B. signalgrass plant response rating,[8]; [19],0
same,"Plant response rating, B. signalgrass",[8]; [20],0
same,"Plant response rating, B. signalgrass",[8]; [21],0
same,B. signalgrass plant response rating,[8]; [22],0
same,B. signalgrass plant response rating,[8]; [23],0
same,B. signalgrass plant response rating,"[8]; Rate 500 g/ha, Postemergence, scale of 0 to 10 where 0 is no effect and 10 is complete control",0
same,Corn plant response rating,[9]; [17],0
same,Corn plant response rating,[9]; [18],0
same,Corn plant response rating,[9]; [19],0
same,"Plant response rating, Corn",[9]; [20],0
same,"Plant response rating, Corn",[9]; [21],0
same,Corn plant response rating,[9]; [22],0
same,Corn plant response rating,[9]; [23],0
same,Corn plant response rating,[9]; [24],0
same,Nutsedge plant response rating,[10]; [17],0
same,Nutsedge plant response rating,[10]; [18],0
same,Nutsedge plant response rating,[10]; [19],0
same,"Plant response rating, Nutsedge",[10]; [20],0
same,"Plant response rating, Nutsedge",[10]; [21],0
same,Nutsedge plant response rating,[10]; [22],0
same,Nutsedge plant response rating,[10]; [23],0
same,Nutsedge plant response rating,[10]; [24],0
same,Rice plant response rating,[11]; [17],0
same,Rice plant response rating,[11]; [25],0
same,Rice plant response rating,[11]; [26],0
same,Rice plant response rating,[11]; [27],0
same,Redroot pigweed plant response rating,[12]; [17],0
same,Redroot pigweed plant response rating,[12]; [18],0
same,Redroot pigweed plant response rating,[12]; [19],0
same,"Plant response rating, Redroot pigweed",[12]; [20],0
same,"Plant response rating, Redroot pigweed",[12]; [21],0
same,Redroot pigweed plant response rating,[12]; [22],0
same,Redroot pigweed plant response rating,[12]; [23],0
same,Redroot pigweed plant response rating,[12]; [24],0
same,Soybean plant response rating,[13]; [17],0
same,Soybean plant response rating,[13]; [18],0
same,Soybean plant response rating,[13]; [19],0
same,"Plant response rating, Soybean",[13]; [20],0
same,"Plant response rating, Soybean",[13]; [21],0
same,Soybean plant response rating,[13]; [22],0
same,Soybean plant response rating,[13]; [23],0
same,Soybean plant response rating,[13]; [24],0
same,Ducksalad plant response rating,[14]; [17],0
same,Ducksalad plant response rating,[14]; [25],0
same,Ducksalad plant response rating,[14]; [26],0
same,Ducksalad plant response rating,[14]; [27],0
same,Cocklebur plant response rating,[15]; [17],0
same,Cocklebur plant response rating,[15]; [18],1
same,Cocklebur plant response rating,[15]; [19],0
same,"Plant response rating, Cocklebur",[15]; [20],0
same,"Plant response rating, Cocklebur",[15]; [21],0
same,Cocklebur plant response rating,[15]; [22],0
same,Cocklebur plant response rating,[15]; [23],0
same,Cocklebur plant response rating,[15]; [24],1
same,Crabgrass plant response rating,[16]; [17],0
same,Crabgrass plant response rating,[16]; [18],0
same,Crabgrass plant response rating,[16]; [19],0
same,"Plant response rating, Crabgrass",[16]; [20],0
same,"Plant response rating, Crabgrass",[16]; [21],0
same,Crabgrass plant response rating,[16]; [22],0
same,Crabgrass plant response rating,[16]; [23],0
same,Crabgrass plant response rating,[16]; [24],0
